One series concerns breast cancer cell lines. The settings on record: various breast cancer cell lines; cited from earlier work.
In another series the test system is human PBMC cells. In words: TNF-α release by human PBMC cells after 16 h co-incubation, supernatants analysed by ELISA. The settings on record: FIG. 6, 10 μg/ml RNA oligonucleotides. It counts as cell-based. On the procedure: In order to determine the immunogenic activity of adjuvants according to the invention, such adjuvants in the form of a lipid-modified nucleic acid containing a sequence according to SEQ ID NO: 40, 41 or 42 were co-incubated with human cells. To this end, human PBMC cells, for example, containing RNA were co-incubated for 16 hours in X-vivo15 medium (BioWhittaker), enriched with 2 mM L-glutamine (BioWhittaker), 10 U/ml penicillin (BioWhittaker) and 10 μg/ml streptomycin, with 10 μg/ml of RNA (mRNA coding for β-galactosidase or phosphorothioate RNA oligonucleotide 40 5′ […] (SEQ ID NO: 40)) and optionally with 10 μg/ml protamine. The supernatants were removed and analysed by means of ELISA. […] When determining the TNFα release, a marked stimulation of the immune system can be detected, which is at least equal to that of β-galactosidase or RNA (see FIG. 5B).
In a further experiment, the release of TNF-α by human PBMC cells was determined after stimulation with RNA oligonucleotides used according to the invention and also adjuvants according to the invention.
To that end, human PBMC cells were co-incubated for 16 hours with 10 μg/ml of RNA oligonucleotides in X-vivo15 medium (BioWhittaker), enriched with 2 mM L-glutamine (BioWhittaker), 10 U/ml penicillin (BioWhittaker) and 10 μg/ml streptomycin. […] The supernatants were removed and analysed by means of ELISA. […]

Take `Cc1c(C)c2c(c(C)c1OC(=O)CCC(=O)O)CC[C@@](C)(CCC[C@H](C)CCC[C@H](C)CCCC(C)C)O2` [VES, vitamin E succinate]: in the series with breast cancer cell lines, the apoptosis result is recorded as “induce apoptosis”.

With “RNA oligo Toc CV2: tocopherol-modified sequence according to SEQ ID NO: 42 (5′-AAUGGAUAUGGAAUAUGGAA-3′, RNA CV2) (RNA, backbone not given here; tocopherol lipid conjugated)”, in the series with human PBMC cells, the “increase in immune stimulation (TNF-α release) as compared with the unmodified RNA oligonucleotide” value is “more than 10 fold”.
